Reference: patent US12544395B2, “Combination compositions comprising a beta-lactamase inhibitor and uses thereof” (priority 2018, dated 2026)

Columns and labels:
Type in all cases: cell-based
E. coli 1924 = assay: Broth microdilution MIC (strain enzymes: TEM-12); settings: Escherichia coli, 1924; alone; read-out: MIC of cefixime (CFM)
E. coli 2150 = assay: Broth microdilution MIC (strain enzymes: SHV-3, TEM-1); settings: Escherichia coli, 2150; alone; read-out: MIC of cefixime (CFM)
E. coli 2806 = assay: Broth microdilution MIC (strain enzymes: SHV-12, TEM-1); settings: Escherichia coli, 2806; alone; read-out: MIC of cefixime (CFM)
E. coli 3174 = assay: Broth microdilution MIC (strain enzymes: TEM-1, CTXM-15); settings: Escherichia coli, 3174; alone; read-out: MIC of cefixime (CFM)
E. coli 3327 = assay: Broth microdilution MIC (strain enzymes: TEM-1, SHV-12); settings: Escherichia coli, 3327; alone; read-out: MIC of cefixime (CFM)
E. coli BAS 1 = assay: Broth microdilution MIC (strain enzymes: none detected); settings: Escherichia coli, BAS1; alone; read-out: MIC of cefixime (CFM)
E. coli ESBL 2 = assay: Broth microdilution MIC (strain enzymes: TEM-1); settings: Escherichia coli, ESBL2; alone; read-out: MIC of cefixime (CFM)
E. coli ESBL 4 = assay: Broth microdilution MIC (strain enzymes: CTX-M15, TEM-1); settings: Escherichia coli, ESBL4; alone; read-out: MIC of cefixime (CFM)
E. coli ESBL 5 = assay: as above; settings: Escherichia coli, ESBL5; alone; read-out: MIC of cefixime (CFM)
E. coli SI-AIRT-4 = assay: Broth microdilution MIC (strain enzymes: TEM-1); settings: Escherichia coli, SIAIRT4; alone; read-out: MIC of cefixime (CFM)
E. coli Si-FDL-GES = assay: microbe, parasite or virus in culture; settings: Escherichia coli, read-out: MIC of cefixime (CFM)
E. coli SI-LP377 = assay: microbe, parasite or virus in culture; settings: Escherichia coli, SILP377, read-out: MIC of cefixime (CFM)
E. coli SI-M004 = assay: Broth microdilution MIC (strain enzymes: SHV-2, GES-12); settings: Escherichia coli, SIM004; alone; read-out: MIC of cefixime (CFM)
E. coli SI-NO36 = assay: Broth microdilution MIC (strain enzymes: SHV-11, TEM-1); settings: Escherichia coli, SINO36; alone; read-out: MIC of cefixime (CFM)
E. coli SI-PBLII = assay: Broth microdilution MIC (strain enzymes: CTX-M2, TEM-1); settings: Escherichia coli; alone; read-out: MIC of cefixime (CFM)
E. coli SI-V502 = assay: Broth microdilution MIC (strain enzymes: TEM-29, CTX-M15); settings: Escherichia coli, SIV502; alone; read-out: MIC of cefixime (CFM)
E. coli 25922 = assay: Broth microdilution MIC (strain enzymes: None detected); settings: Escherichia coli, 25922; alone; read-out: MIC of cefixime (CFM)
K. oxytoca 169219 = assay: Broth microdilution MIC (strain enzymes: TEM-1, CTXM-15); settings: Klebsiella oxytoca, 169219; alone; read-out: MIC of cefixime (CFM)
K. oxytoca 176877 = assay: Broth microdilution MIC (strain enzymes: SHV-105); settings: Klebsiella oxytoca, 176877; alone; read-out: MIC of cefixime (CFM)
K. oxytoca 496 #2 = assay: Broth microdilution MIC (strain enzymes: SHV-105, TEM-1); settings: Klebsiella oxytoca; alone; read-out: MIC of cefixime (CFM)
K. pneumoniae 3151 = assay: Broth microdilution MIC (strain enzymes: SHV-12, TEM-1); settings: Klebsiella pneumoniae, 3151; alone; read-out: MIC of cefixime (CFM)
K. pneumoniae 115468 = assay: Broth microdilution MIC (strain enzymes: TEM-1); settings: Klebsiella pneumoniae, 115468; alone; read-out: MIC of cefixime (CFM)
K. pneumoniae 153239 = assay: Broth microdilution MIC (strain enzymes: SHV-11, TEM-1); settings: Klebsiella pneumoniae, 153239; alone; read-out: MIC of cefixime (CFM)
K. pneumoniae 170375 = assay: Broth microdilution MIC (strain enzymes: SHV-12, CTX-M15 and TEM-1); settings: Klebsiella pneumoniae, 170375; alone; read-out: MIC of cefixime (CFM)
K. pneumoniae 304487 = assay: Broth microdilution MIC (strain enzymes: SHV-12,TEM-1); settings: Klebsiella pneumoniae, 304487; alone; read-out: MIC of cefixime (CFM)
K. pneumoniae 319478 = assay: Broth microdilution MIC (strain enzymes: SHV-12, CTX-M3 and TEM-1); settings: Klebsiella pneumoniae, 319478; alone; read-out: MIC of cefixime (CFM)
K. pneumoniae 329633 = assay: Broth microdilution MIC (strain enzymes: SHV-5, TEM-1); settings: Klebsiella pneumoniae, 329633; alone; read-out: MIC of cefixime (CFM)
K. pneumoniae 11/23 LF#2 = assay: microbe, parasite or virus in culture; settings: Klebsiella pneumoniae, read-out: MIC of cefixime (CFM)
K. pneumoniae ESBL 10 = assay: Broth microdilution MIC (strain enzymes: SHV-12, TEM-1); settings: Klebsiella pneumoniae, ESBL10; alone; read-out: MIC of cefixime (CFM)
K. pneumoniae ESBL 7 #1 = assay: as above; settings: Klebsiella pneumoniae; alone; read-out: MIC of cefixime (CFM)
K. pneumoniae ESBL 8 #1 = assay: Broth microdilution MIC (strain enzymes: TEM-1, SHV-12); settings: Klebsiella pneumoniae; alone; read-out: MIC of cefixime (CFM)
K. pneumoniae ESBL 8 #2 = assay: Broth microdilution MIC (strain enzymes: SHV-12, TEM-1); settings: Klebsiella pneumoniae; alone; read-out: MIC of cefixime (CFM)
K. pneumoniae ESBL 7 #2 = assay: Broth microdilution MIC (strain enzymes: SHV-12, CTX-M15, TEM-1); settings: Klebsiella pneumoniae; alone; read-out: MIC of cefixime (CFM)
K. pneumoniae KI (KCl) = assay: Broth microdilution MIC (strain enzymes: TEM-10); settings: Klebsiella pneumoniae; alone; read-out: MIC of cefixime (CFM)
K. pneumoniae KP 3 = assay: Broth microdilution MIC (strain enzymes: SHV-1, TEM-1); settings: Klebsiella pneumoniae, KP3; alone; read-out: MIC of cefixime (CFM)
K. pneumoniae KP 4 = assay: Broth microdilution MIC (strain enzymes: SHV-2a, SHV-5, TEM-1); settings: Klebsiella pneumoniae, KP4; alone; read-out: MIC of cefixime (CFM)
K. pneumoniae KP 8 = assay: Broth microdilution MIC (strain enzymes: TEM-10, TEM-1, CTX-M15); settings: Klebsiella pneumoniae, KP8; alone; read-out: MIC of cefixime (CFM)
K. pneumoniae KPN 508 = assay: Broth microdilution MIC (strain enzymes: SHV-7, TEM-1); settings: Klebsiella pneumoniae, KPN508; alone; read-out: MIC of cefixime (CFM)
K. pneumoniae SI-KP NO30 = assay: Broth microdilution MIC (strain enzymes: TEM-26b, SHV-60, SHV-26); settings: Klebsiella pneumoniae, SIKPNO30; alone; read-out: MIC of cefixime (CFM)
K. pneumoniae BAA 1705 = assay: Broth microdilution MIC (strain KPC-producing); settings: Klebsiella pneumoniae, BAA1705; alone; read-out: MIC of cefixime (CFM)
[1] = test system: panel of ESBL-producing Enterobacteriaceae (40 strains); assay: Broth microdilution MIC50/MIC90 summary over the panel

C=CC1=C(C(=O)O)N2C(=O)[C@@H](NC(=O)/C(=N\OCC(=O)O)c3csc(N)n3)[C@H]2SC1 [Cefixime, cefixime, reference compound]
MIC (E. coli 1924): 2 µg/mL | MIC (E. coli 2150): > 32 µg/mL | MIC (E. coli 2806): 32 µg/mL | MIC (E. coli 3174): 0.5 µg/mL | MIC (E. coli 3327): > 32 µg/mL | MIC (E. coli BAS 1): > 32 µg/mL | MIC (E. coli ESBL 2): > 32 µg/mL | MIC (E. coli ESBL 4): > 32 µg/mL | MIC (E. coli ESBL 5): > 32 µg/mL | MIC (E. coli SI-AIRT-4): 0.5 µg/mL | MIC (E. coli Si-FDL-GES): 2 µg/mL | MIC (E. coli SI-LP377): > 32 µg/mL | MIC (E. coli SI-M004): > 32 µg/mL | MIC (E. coli SI-NO36): 1 µg/mL | MIC (E. coli SI-PBLII): 1 µg/mL | MIC (E. coli SI-V502): 2 µg/mL | MIC (E. coli 25922): 1 µg/mL | MIC (K. oxytoca 169219): > 32 µg/mL | MIC (K. oxytoca 176877): > 32 µg/mL | MIC (K. oxytoca 496 #2): 32 µg/mL | MIC (K. pneumoniae 3151): > 32 µg/mL | MIC (K. pneumoniae 115468): > 32 µg/mL | MIC (K. pneumoniae 153239): 0.5 µg/mL | MIC (K. pneumoniae 170375): > 32 µg/mL | MIC (K. pneumoniae 304487): > 32 µg/mL | MIC (K. pneumoniae 319478): > 32 µg/mL | MIC (K. pneumoniae 329633): > 32 µg/mL | MIC (K. pneumoniae 11/23 LF#2): > 32 µg/mL | MIC (K. pneumoniae ESBL 10): > 32 µg/mL | MIC (K. pneumoniae ESBL 7 #1): > 32 µg/mL | MIC (K. pneumoniae ESBL 8 #1): > 32 µg/mL | MIC (K. pneumoniae ESBL 8 #2): > 32 µg/mL | MIC (K. pneumoniae ESBL 7 #2): > 32 µg/mL | MIC (K. pneumoniae KI (KCl)): 32 µg/mL | MIC (K. pneumoniae KP 3): > 32 µg/mL | MIC (K. pneumoniae KP 4): > 32 µg/mL | MIC (K. pneumoniae KP 8): > 32 µg/mL | MIC (K. pneumoniae KPN 508): > 32 µg/mL | MIC (K. pneumoniae SI-KP NO30): > 32 µg/mL | MIC (K. pneumoniae BAA 1705): > 32 µg/mL | MIC50 ([1]; read-out: Cefixime MIC50): > 32 µg/mL | MIC90 ([1]; read-out: Cefixime MIC90): > 32 µg/mL
